Columns and labels:
Format in all cases: functional, cell-based
A549 = test: Cytotoxicity was measured against neoplastic cultured A-549 cells of human lung carcinoma.
SK-MEL-28 = test: Cytotoxicity was measured against neoplastic cultured MEL-28 cells of malign human melanoma.
P388 = test: Cytotoxicity was measured against neoplastic cultured P-388 cells of murine leukemia.; settings: Mus musculus
HT-29 = test: Cytotoxicity was measured against neoplastic cultured HT-29 cells of human colon carcinoma.

Row | SMILES | IC50 (A549) [µM] | IC50 (SK-MEL-28) [µM] | IC50 (P388) [µM] | IC50 (HT-29) [µM]
1 | CC(C)=CCCC1=CCC2C(=O)c3ccccc3C(=O)C2C1 (stereo not given) | 8.5 | > 34 | 8.5 | > 34
2 | CC(C)=CCCC1=CCC2=C(C1)C(=O)c1ccccc1C2=O | 17 | > 34 | 17 | > 34
3 | CC(=O)Oc1cc(C)c(OC(C)=O)c2c1CC=C(CCC=C(C)C)C2 | 2.9 | 14.6 | 2.9 | 14.6
4 | CC(C)=CCCC1=CCC2=C(C1)C(=O)C(C)=CC2=O | 3.9 | 9.8 | 3.9 | 19.5
5 | CC(C)=CCCC1=CCC2=C(C1)C(=O)C=CC2=O | 2.1 | 2.1 | 1 | 2.1
6 | CC(=O)Oc1cc(C)c(OC(C)=O)c2cc(CCC=C(C)C)ccc12 | 1.5 | 3.5 | 2.9 | 7.3
7 | CC(C)=CCCc1ccc2c(c1)C(=O)C(C)=CC2=O | 3.9 | 9.8 | 3.9 | 19.6
8 | CC(C)=CCCc1ccc2c(c1)C(=O)C=CC2=O | 1 | 0.4 | 0.4 | 1
9 | CC(=O)Oc1ccc(OC(C)=O)c2c1CC=C(CCC=C(C)C)C2 | 3.6 | 3.6 | 1.5 | 3.6
10 | CC(C)=CCCC1=CCc2c(O)cc(C)c(O)c2C1 | 3.8 | 19.4 | 3.8 | 19.4
11 | CC(C)=CCCC1=CCc2c(O)ccc(O)c2C1 | 4.9 | 4.9 | 2.1 | 4.9
12 | CC1=CCC[C@H]2[C@](C)(Cc3cc(O)ccc3O)[C@@H](C)CC[C@]12C [AVAROL] | 6 | 6 | 3.1 | 6
13 | CC1=CCC[C@H]2[C@](C)(CC3=CC(=O)C=CC3=O)[C@@H](C)CC[C@]12C [AVARONE] | 6 | 6 | 3.1 | 6
14 | O=C1C=CC(=O)C=C1 [BENZOQUINONE] | 46.2 | 46.2 | 11.1 | 46.2
15 | O=C1C=CC(=O)c2ccccc21 [NAPHTHOQUINONE] | > 63.2 | > 63.2 | > 63.2 | > 63.2

From ChEMBL document CHEMBL1151602, “Synthesis and bioactivity of new antineoplastic terpenylquinones” (Bioorg Med Chem Lett, 1996)
